In brackets after ≈: the same amount, converted by molar mass.
Columns and labels:
[1] = system: Pseudomonas aeruginosa PR1 (clinical isolate with intermediate aminoglycoside resistance); test: MIC against Pseudomonas aeruginosa clinical isolate PR1; format: cell-based; details: Pseudomonas aeruginosa resistant strain PR1
[2] = system: Klebsiella pneumoniae KR3 (clinical isolate possessing high-level aminoglycoside resistance); test: MIC against Klebsiella pneumoniae clinical isolate KR3; format: cell-based; details: Klebsiella pneumonia KR3; in µg/mL
Description: (§1) Klebsiella pneumoniae (Kpn) and Escherichia coli (Eco) are gram-negative (like Pae), enteric pathogens with increasing clinical relevance. Many clinical isolates of Kpn and Eco harbor extended-spectrum beta-lactamases and are no longer sensitive to most beta-lactam antibiotics. We acquired clinical isolates of Klebsiella pneumoniae and Escherichia coli (Micromyx LLC, Kalamazoo, Mich.) and used this panel to test compounds for anti-enteric activity.

[3] = system: P. aeruginosa 6294 MLP-3; test: Rat neutropenic thigh model; format: in vivo
Experimental: The compound identified as SXP 2523 was selected for further testing in vivo. Twenty male Sprague Dawley rats were pre-treated with cyclophosphamide to render them neutropenic on day −4 and day −1 with 100 mg/kg and 75 mg/kg respectively. Rats were infected with P. aeruginosa 6294 MLP-3, via injection into the right thigh muscle of 0.1 mL per rat. Two hours post infection rats were treated intravenously with either SXP-2523 or amikacin in a total dose of 10 or 60 mg/kg, respectively. The test article and control agent were delivered at 2, 4, and 6 hours post infection. Five rats were treated with each drug concentration. One group of five rats was euthanized at initiation of treatment and thigh CFUs were processed (T=Rx). Twenty-four hours post infection rats were euthanized by CO2 inhalation. The right thigh muscles of the rats were aseptically removed, weighed, homogenized, serially diluted, and plated on MacConkey medium. The plates were incubated overnight at 37° C. in 5% CO2. CFU per gram of thigh was calculated by enumerating the plated colonies then adjusting for serial dilutions and the weight of the thigh. The following table 7 summarizes the results Table 6: […]

[4] = system: Klebsiella pneumoniae (Kpn, KPWT, ATCC #700603); test: MIC against Klebsiella pneumoniae reference strain KPWT; format: cell-based; details: Klebsiella pneumonia KPWT, Table 5 (unit not given); in µg/mL
[5] = system: more than fifty resistant contemporary clinical isolates of Pseudomonas aeruginosa; test: MIC90 against panel of resistant clinical isolates of Pseudomonas aeruginosa; format: cell-based
Description: To assess this, a panel of more than fifty resistant contemporary clinical isolates of Pseudomonas aeruginosa were obtained from multiple sources including JMI Laboratories (North Liberty, Iowa), Pfizer (Groton, Conn.), Micromyx (Kalamazoo, Mich.), Dr. J. Chow (Wayne State University). Strains were characterized for resistance to a wide variety of classes of antibiotics including aminoglycosides, β-lactams and fluoroquinolones. […] This reflects the difficulty in treating clinical Pseudomonas aeruginosa infections. […] Using this stringent panel, we tested a subset of compounds of the invention (Table 4).

[6] = system: Pseudomonas aeruginosa PR3 (high-level, efflux-mediated, pan-aminoglycoside resistance); test: MIC against Pseudomonas aeruginosa clinical isolate PR3; format: cell-based; details: Pseudomonas aeruginosa resistant strain PR3
[7] = system: Acinetobacter baumannii AB2; test: MIC against Acinetobacter baumannii clinical isolate AB2; format: cell-based
Description: Acinetobacter baumannii is another clinically important and very challenging gram negative pathogen. Members of the Acinetobacter genus, including baumannii, have a remarkable ability to upregulate and acquire resistance determinants. Coupled with its ability to survive for prolonged periods in a hospital environment, A. baumannii is an emerging threat for healthcare institutions globally. We acquired clinical isolates of Acinetobacter baumannii and used this panel to test compounds for anti-Acinetobacter activity. We first tested reference AGs against our panel of Aba strains.

[8] = system: Klebsiella pneumoniae KR2 (clinical isolate with intermediate aminoglycoside resistance); test: MIC against Klebsiella pneumoniae clinical isolate KR2; format: cell-based; details: Klebsiella pneumonia KR2
Description: as §1

[9] = system: Pseudomonas aeruginosa (Pae, PAWT, ATCC #27853); test: MIC against Pseudomonas aeruginosa reference strain PAWT; format: cell-based; details: Pseudomonas aeruginosa wild type PAWT
[10] = system: fifty resistant contemporary clinical isolates of Klebsiella pneumoniae; test: MIC90 against panel of resistant clinical isolates of Klebsiella pneumoniae; format: cell-based; details: stringent panel of resistant clinical isolates, Table 5
Description: Using this stringent Klebsiella pneumoniae panel, we tested a subset of compounds of the invention.

[11] = system: panel of E. coli strains; test: MIC90 against a panel of E. coli strains; format: cell-based; details: in µg/mL
[12] = system: fifty resistant contemporary clinical isolates of Acinetobacter baumannii; test: MIC90 against panel of resistant clinical isolates of Acinetobacter baumannii; format: cell-based
Description: As in the case of Pseudomonas aeruginosa and Klebsiella pneumoniae, we considered whether the SAR observed against select Acinetobacter baumannii strains 1, 2 or 3 was indicative of general potency. […] Using this stringent Acinetobacter baumannii panel, we tested a subset of compounds of the invention.

[13] = Log CFU/thigh, total dose 10 mg/kg SXP-2523 or 60 mg/kg amikacin iv

NCCCNCC1OC(OC2C(NC(=O)C(O)CCN)CC(N)C(OC3OC(CN)C(O)CC3N)C2F)C(O)C(N)C1O (stereo not drawn) [SXP 2523]
MIC PR1 [1]: 1 to 2 µg/mL
MIC KR3 [2]: 1
Change from 24 hr. control [3, 13]: −0.71
Change from T = Rx controls [3, 13]: 2.37
Log CFU/thigh ([3]; neutropenic male Sprague Dawley rats, iv at 2, 4, 6 h post infection, total dose 10 mg/kg SXP-2523 or 60 mg/kg amikacin, 24 h post infection): 6.55 Log CFU/thigh
efficacy against P. aeruginosa in animal model ([3]; rat neutropenic thigh model, total dose 10 mg/kg iv): effective against P. aeruginosa
MIC KPWT [4]: 0.5-1
MIC90 Pseudomonas aeruginosa [5]: 4 µg/mL (≈ 6.38 µM)
MIC PR3 [6]: 4 µg/mL (≈ 6.38 µM)
MIC AB2 [7]: 1 µg/mL (≈ 1.6 µM)
MIC KR2 [8]: 0.5-1
MIC PAWT [9]: 0.25 µg/mL (≈ 0.399 µM)
MIC90 Klebsiella pneumonia [10]: 1 µg/mL (≈ 1.6 µM)
MIC90 E. coli [11]: 2
MIC90 Acinetobacter baumannii [12]: 4 µg/mL (≈ 6.38 µM)

— patent US8586552B2, “4,6-substituted 2,5-dideoxystreptamine aminoglycoside antibiotics” (SelectX Pharmaceuticals, Inc., priority 2012, dated 2013)
